Values quoted from earlier work as cited in PMC12211128, “Safety, tolerability, pharmacokinetic and pharmacodynamic effects of the muscarinic M1 positive allosteric modulator VU0467319 for Alzheimer’s disease: a single ascending-dose study in healthy participants” (Alzheimer's Research & Therapy, 2025).

Key:
[1] = system: Parkinson's disease; design: method as in PMID 39761063; conditions: cited from earlier work
[2] = system: M1 mAChR; conditions: cited from earlier work

SMILES | cognitive performance in Parkinson's disease [1] | agonist and PAM properties at M1 [2]
Cc1c(Cc2ccc(-n3cccn3)cc2)cc2c(c1F)CN([C@H]1COCC[C@@H]1O)C2=O [TAK-071] | produced improvement in cognitive performance | 
COc1ccc(Cn2cc(C(=O)O)c(=O)c3ccccc32)cc1 [BQCA, benzyl quinolone carboxylic acid, reference compound] |  | both agonist and PAM properties
